From patent US20170009242A1, “CRISPR-Mediated Genome Engineering for Protein Depletion” (Whitehead Institute for Biomedical Research, priority 2015, published 2017) come the findings set out here.

The test relates to CENP-I-AID-EGFP fusion protein. The test is described as follows: Auxin-induced depletion of endogenously tagged CENP-I-AID-EGFP, immunofluorescence microscopy. The class given is cell-based. Particulars: osTIR1-expressing DLD-1 cells, interphase cell; IAA 500 μM for 12 hr; immunofluorescence (FIG. 3). The procedure: DLD-1 cell lines were cultured as described previously in Dulbecco's Modified Eagle Medium (DMEM) supplemented with 10% fetal bovine serum (FBS), penicillin/streptomycin and 2 mM L-glutamine. Indole-3-acetic acid (IAA) (15148; Sigma) was dissolved in water and added to cells at a concentration of 500 μM for 12 hr. osTIR1-9Myc was cloned into the pBabe-puro vector and introduced into cell lines using retroviral delivery. Stable integrants were selected in puromycin and single clones isolated using single cell sorting. Western Blot analysis using an antibody raised against the Myc tag was used to determine the expression level of TIR1 protein in different clones. Rapidly growing clones with the high levels of osTIR1 expression were selected for further use. 2.5 ug each of pX330-GFP and the donor plasmid were co-transfected into osTIR1-9Myc expressing cells using Lipofectamine 2000 (Invitrogen) and OptiMEM according to the manufacturer's instructions. 24 h after transfection cells, were transferred to a 20 cm dish, and 48 h later cells were selected in […] G418 (Gibco) and 2 ug/ml puromycin to maintain the osTIR1. Colonies were harvested after 2 weeks and FACS sorted to isolate individual cells. […]

Take `O=C(O)Cc1c[nH]c2ccccc12` [IAA, Indole-3-acetic acid]: the “CENP-I-AID-EGFP fusion protein at kinetochores upon addition of IAA” value was “no longer observed” and the “associated proteins such as CENP-T at kinetochores upon addition of IAA” value is “lost from kinetochores”.
